Seven compounds from patent publication US10358427B2, “Modulators of indoleamine 2,3-dioxygenase” (GLAXOSMITHKLINE INTELLECTUAL PROPERTY DEVELOPMENT LIMITED, priority 2015, dated 2019) can be followed below.

Molecules are shown by their SMILES.

Assay [1] concerns the target T1, indoleamine 2, 3-dioxygenase (IDO1) (Homo sapiens, UniProt P14902). In words: HeLa IDOi assay (kynurenine detection via mass spectrometry). The format is cell-based. Details: human epithelial HeLa cells (CCL-2; host or cells: HeLa cells stimulated with human IFN-γ. The following applies: human epithelial HeLa cells stimulated with IFN-γ; kynurenine by mass spectrometry; 2 days incubation. How it is done:
(§1) Compounds of the present invention were tested via high-throughput cellular assays utilizing detection of kynurenine via mass spectrometry and cytotoxicity as end-points. For the mass spectrometry and cytotoxicity assays, human epithelial HeLa cells (CCL-2; ATCC®, Manassas, Va.) were stimulated with human interferon-γ (IFN-γ) (Sigma-Aldrich Corporation, St. Louis, Mo.) to induce the expression of indoleamine 2, 3-dioxygenase (IDO1). Compounds with IDO1 inhibitory properties decreased the amount of kynurenine produced by the cells via the tryptophan catabolic pathway. Cellular toxicity due to the effect of compound treatment was measured using CellTiter-Glo® reagent (CTG) (Promega Corporation, Madison, Wis.), which is based on luminescent detection of ATP, an indicator of metabolically active cells.
(§2) In preparation for the assays, test compounds were serially diluted 3-fold in DMSO from a typical top concentration of 5 mM and plated at 0.5 μL in 384-well, polystyrene, clear bottom, tissue culture treated plates with lids (Greiner Bio-One, Kremsmünster, Austria) to generate 11-point dose response curves. Low control wells (0% kynurenine or 100% cytotoxicity) contained either 0.5 μL of DMSO in the presence of unstimulated (−IFN-γ) HeLa cells for the mass spectrometry assay or 0.5 μL of DMSO in the absence of cells for the cytotoxicity assay, and high control wells (100% kynurenine or 0% cytotoxicity) contained 0.5 μL of DMSO in the presence of stimulated (+IFN-γ) HeLa cells for both the mass spectrometry and cytotoxicity assays.
Frozen stocks of HeLa cells were washed and recovered in DMEM high glucose medium with HEPES (Thermo Fisher Scientific, Inc., Waltham, Mass.) supplemented with 10% v/v certified fetal bovine serum (FBS) (Thermo Fisher Scientific, Inc., Waltham, Mass.), and 1× penicillin-streptomycin antibiotic solution (Thermo Fisher Scientific, Inc., Waltham, Mass.). The cells were diluted to 100,000 cells/mL in the supplemented DMEM medium. 50 μL of either the cell suspension, for the mass spectrometry assay, or medium alone, for the cytotoxicity assay, were added to the low control wells, on the previously prepared 384-well compound plates, resulting in 5,000 cells/well or 0 cells/well respectively. IFN-γ was added to the remaining cell suspension at a final concentration of 10 nM, and 50 μL of the stimulated cells were added to all remaining wells on the 384-well compound plates. The plates, with lids, were then placed in a 37° C., 5% CO2 humidified incubator for 2 days.
(§3) Following incubation, the 384-well plates were removed from the incubator and allowed to equilibrate to room temperature for 30 minutes. For the cytotoxicity assay, CellTiter-Glo® was prepared according to the manufacturer's instructions, and 10 μL were added to each plate well. After a twenty minute incubation at room temperature, luminescence was read on an EnVision® Multilabel Reader (PerkinElmer Inc., Waltham, Mass.). For the mass spectrometry assay, 10 μL of supernatant from each well of the compound-treated plates were added to 40 μL of acetonitrile, containing 10 μM of an internal standard for normalization, in 384-well, polypropylene, V-bottom plates (Greiner Bio-One, Kremsmünster, Austria) to extract the organic analytes. Following centrifugation at 2000 rpm for 10 minutes, 10 μL from each well of the acetonitrile extraction plates were added to 90 μL of sterile, distilled H2O in 384-well, polypropylene, V-bottom plates for analysis of kynurenine and the internal standard on the RapidFire 300 (Agilent Technologies, Santa Clara, Calif.) and 4000 QTRAP MS (SCIEX, Framingham, Mass.). MS data were integrated using Agilent Technologies' RapidFire Integrator software, and data were normalized for analysis as a ratio of kynurenine to the internal standard. […]

In assay [2] the target is T1, indoleamine 2, 3-dioxygenase (IDO1). Nature of the assay: PBMC IDOi assay (kynurenine detection via mass spectrometry). Conditions: human PBMC stimulated with IFN-γ and LPS; kynurenine by mass spectrometry; 2 days incubation. The format is cell-based. How it is done: as §1, with “peripheral blood mononuclear” for “epithelial HeLa”, “(PBMC) (PB003F; AlICells®, Alameda, Calif.)” for “(CCL-2; ATCC®, Manassas, Va.)”, “Mo.) and lipopolysaccharide from Salmonella minnesota (LPS) (Invivogen, San Diego, Calif.)” for “Mo.)”
as §2, with “(−IFN-γ/−LPS) PBMCs” for “(−IFN-γ) HeLa cells”, “(+IFN-γ/+LPS) PBMCs” for “(+IFN-γ) HeLa cells”
Frozen stocks of PBMCs were washed and recovered in RPMI 1640 medium (Thermo Fisher Scientific, Inc., Waltham, Mass.) supplemented with 10% v/v heat-inactivated fetal bovine serum (FBS) (Thermo Fisher Scientific, Inc., Waltham, Mass.), and 1× penicillin-streptomycin antibiotic solution (Thermo Fisher Scientific, Inc., Waltham, Mass.). The cells were diluted to 1,000,000 cells/mL in the supplemented RPMI 1640 medium. 50 μL of either the cell suspension, for the mass spectrometry assay, or medium alone, for the cytotoxicity assay, were added to the low control wells, on the previously prepared 384-well compound plates, resulting in 50,000 cells/well or 0 cells/well respectively. IFN-γ and LPS were added to the remaining cell suspension at final concentrations of 100 ng/ml and 50 ng/ml respectively, and 50 μL of the stimulated cells were added to all remaining wells on the 384-well compound plates. The plates, with lids, were then placed in a 37° C., 5% CO2 humidified incubator for 2 days.
as §3, with “and 40” for “and 10”

T1 sequence (P14902 whole entry): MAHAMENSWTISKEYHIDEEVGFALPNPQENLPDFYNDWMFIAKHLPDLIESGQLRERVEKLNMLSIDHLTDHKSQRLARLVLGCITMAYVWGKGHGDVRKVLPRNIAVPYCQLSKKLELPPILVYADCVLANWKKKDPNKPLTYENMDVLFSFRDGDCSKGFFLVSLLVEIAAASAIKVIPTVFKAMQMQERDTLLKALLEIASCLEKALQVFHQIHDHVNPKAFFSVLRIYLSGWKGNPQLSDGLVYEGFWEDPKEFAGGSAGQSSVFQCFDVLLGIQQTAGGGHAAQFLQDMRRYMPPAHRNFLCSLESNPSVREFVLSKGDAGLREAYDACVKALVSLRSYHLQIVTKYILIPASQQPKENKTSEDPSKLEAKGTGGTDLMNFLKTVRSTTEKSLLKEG

In the case of `CC(C)CN(c1ccc([C@H]2C[C@H]2C(=O)O)cc1Nc1nc(Cl)ns1)C1CCCCC1` (relative stereo) [Example 4, cis-2-(3-((3-Chloro-1,2,4-thiadiazol-5-yl)amino)-4-(cyclohexyl(isobutyl)amino)phenyl)cyclopropanecarboxylic acid], the EC50 (as a rule, the concentration needed to bring the measured effect to its halfway point) in assay [1] is 10 nM; in assay [2], 1.26 nM.
For `CC(C)CN(c1ccc(-c2ccccc2C(=O)O)cc1Nc1nc2ccccc2o1)C1CCCCC1` [Example 7, 3′-(Benzo[d]oxazol-2-ylamino)-4′-(cyclohexyl(isobutyl)amino)-[1,1′-biphenyl]-2-carboxylic acid] the same measures were 79.4 nM and 39.8 nM.
Regarding `CC(C)CN(c1ccc([C@H]2C[C@H]2C(=O)O)cc1Nc1nc(C(F)(F)F)ns1)C1CCCCC1` (relative stereo) [Example 6, cis-2-(4-(Cyclohexyl(isobutyl)amino)-3-((3-(trifluoromethyl)-1,2,4-thiadiazol-5-yl)amino)phenyl)cyclopropanecarboxylic acid, 2,2,2-trifluoroacetic acid], the concentration for a half-maximal effect (EC50) in assay [1] is 10 nM; in assay [2], 1.26 nM.
As for `CC(C)CN(c1ccc(-c2ccccc2C(=O)O)cc1Nc1nc(C(F)(F)F)ns1)C1CCCCC1` [Example 17, 4′-(Cyclohexyl(isobutyl)amino)-3′((3-(trifluoromethyl)-1,2,4-thiadiazol-5-yl)amino)-[1,1′-biphenyl]-2-carboxylic acid], the EC50 is 2 nM in assay [1] and 1 nM in assay [2].
On the same counts, the results for `CC(C)CN(c1ccc(-c2ccccc2-c2nnn[nH]2)cc1Nc1nc(C(F)(F)F)ns1)C1CCCCC1` [Example 18, N^4-cyclohexyl-N^4-isobutyl-2′-(1H-tetrazol-5-yl)-N^3-(3-(trifluoromethyl)-1,2,4-thiadiazol-5-yl)-[1,1′-biphenyl]-3,4-diamine] are 2.51 nM and 1.26 nM.
On the same counts, the results for `CCCCc1cc(-c2ccccc2-c2nnn[nH]2)cc(Nc2nc3ccccc3o2)c1OCCC` [Example 14, N-(5-Butyl-4-propoxy-2′-(1H-tetrazol-5-yl)-[1,1′-biphenyl]-3-yl)benzo[d]oxazol-2-amine] are 5.01 nM and 7.94 nM.
For the compound `CC(C)CN(c1ccc(-c2ccccc2-c2nnn[nH]2)cc1Nc1nc2ccccc2[nH]1)C1CCCCC1` [Example 19, N^3-(1H-benzo[d]imidazol-2-yl)-N^4-cyclohexyl-N^4-isobutyl-2′-(1H-tetrazol-5-yl)-[1,1′-biphenyl]-3,4-diamine], the EC50 in assay [1] was 6.31 nM; in assay [2], 1.58 nM.
